According to patent US7459477B2, “Substituted N-phenyl-phenoxy nicotinic acid-(thio)amides and their use as herbicides” (Nihon Nohyaku, Co., Ltd., priority 2001, dated 2008):

Legend:
Assay type in all cases: in vivo
[1] = tested on: powdery mildew fungus (Erysiphe graminis hordei); assay: Controlling effect on barley powdery mildew (Test Example 5); settings: 200 ppm; potted barley at 1 leaf stage sprayed one day after inoculation; one week after the inoculation; 25° C.
Method: Controlling Effect on Barley Powdery Mildew Potted barley plants at the 1 leaf stage were inoculated with spores of powdery mildew fungus (Erysiphe graminis hordei) by sprinkling. After one day, they were sprayed with a liquid chemical prepared by diluting a preparation containing each compound listed in Table 1, Table 3 or Table 4 as an active ingredient to adjust the concentration to 200 ppm. Then, they were allowed to stand in a room thermostated at 25° C. One week after the inoculation, the lesion area of each leaf was measured and then compared with that on the untreated plot, whereby the controlling effect was judged according to the following criterion. Criterion for Judgment: • A: control efficacy 100 to 95% • B: control efficacy 94 to 80% • C: control efficacy 79 to 60% • D: control efficacy 59 to 0%

[2] = tested on: Two-Spotted Spider Mite (Tetranychus Urticae); assay: Acaricidal effect on two-spotted spider mite (Test Example 3); settings: 500 ppm; kidney bean leaf disc with female adults sprayed; two days after the treatment; 25° C.
Method: Acaricidal Effect on Two-Spotted Spider Mite (Tetranychus Urticae)
A leaf disc with a diameter of 2 cm was made of a kidney bean leaf, placed on wet filter paper, inoculated with female adult two-spotted spider mites, and then uniformly sprayed, on a turntable, with 50 ml of a liquid chemical prepared by diluting a preparation containing each compound listed in Tables 1 to 4 as an active ingredient to adjust the concentration to 500 ppm. After the spraying, the leaf disc was allowed to stand in a room thermostated at 25° C. Two days after the treatment with the preparation, the dead insects were counted and the acaricidal effect was judged according to the criterion shown in Test Example 1. The test was carried out with two replications of 10 insects.

[3] = tested on: Diamond Back Moth (Plutella xylostella); assay: Insecticidal effect on diamond back moth (Test Example 1); settings: 500 ppm; Chinese cabbage seedling with eggs immersed about 30 seconds; six days after the immersion; 25° C.
Source text: Insecticidal Effect on Diamond Back Moth (Plutella xylostella)
Adult diamond back moths were released and allowed to oviposit on a Chinese cabbage seedling. Two days after the release, the seedling having the eggs deposited thereon was immersed for about 30 seconds in a liquid chemical prepared by diluting a preparation containing each compound listed in Tables 1 to 4 as an active ingredient to adjust the concentration to 500 ppm. After air-dryness, it was allowed to stand in a room thermostatted at 25° C. Six days after the immersion, the hatched insects were counted. The mortality was calculated according to the following equation and the insecticidal effect was judged according to the criterion shown below. The test was carried out with triplicate groups of 10 insects.

[4] = tested on: Green Peach Aphid (Myzus Persicae); assay: Insecticidal effect on green peach aphid (Test Example 4); settings: 500 ppm; stems and leaves of Chinese cabbage sprayed; six days after the spraying; greenhouse
Source text: Insecticidal Effect on Green Peach Aphid (Myzus Persicae)
A Chinese cabbage plant was planted in each of plastic pots with a diameter of 8 cm and a height of 8 cm, and green peach aphids were propagated on the plant. Then, the stems and leaves were sufficiently sprayed with a liquid chemical prepared by diluting a preparation containing each compound listed in Tables 1 to 4 as an active ingredient to adjust the concentration to 500 ppm. After air-drying, the pots were allowed to stand in a greenhouse. Six days after the spraying, green peach aphids parasitic on each Chinese cabbage plant were counted and the control efficacy was calculated, whereby the […] effect was judged according to the criterion shown below. Control efficacy (%)=100−[(T×Ca)/(Ta×C)]×100 • Ta: number of parasites before spraying in treated group, • T: number of parasites after spraying in treated group,
Ca: number of parasites before spraying in untreated group, • […]: number of parasites after spraying in untreated group. Criterion for Judgment: • A: control efficacy 100% • B: control efficacy 99 to 90% • C: control efficacy 89 to 80% • D: control efficacy 79 to 50%

[5] = tested on: Smaller Tea Tortrix (Adxophyes sp.); assay: Insecticidal effect on smaller tea tortrix (Test Example 2); settings: 500 ppm; tea leaves immersed about 30 seconds, inoculated with larvae; eight days after the inoculation; 25° C., humidity 70%
Method: Insecticidal Effect on Smaller Tea Tortrix (Adxophyes sp.)
Tea leaves were immersed for about 30 seconds in a liquid chemical prepared by diluting a preparation containing each compound listed in Tables 1 to 4 as an active ingredient to adjust the concentration to 500 ppm. After air-dryness, the tea leaves were placed in a plastic Petri dish with a diameter of 9 cm and inoculated with larvae of smaller tea tortrix, after which the dish was allowed to stand in a room thermostatted at 25° C. and having a humidity of 70%. Eight days after the inoculation, the dead and alive were counted. The mortality was calculated according to the following equation and the insecticidal effect was judged according to the criterion shown in Test Example 1. The test was carried out with triplicate groups of 10 insects.

| Compound | controlling effect (control efficacy rating, lesion area) [1] | acaricidal effect (mortality rating) [2] | insecticidal effect (mortality rating) [3] | control efficacy rating [4] | insecticidal effect (mortality rating) [5] |
| --- | --- | --- | --- | --- | --- |
| CC(C)c1cc(C(F)(C(F)(F)F)C(F)(F)F)ccc1NC(=O)c1cn(C)nc1C(F)(F)F [1-5] | B or higher | – | – | – | – |
| Cn1cc(C(=O)Nc2ccc(C(F)(C(F)(F)F)C(F)(F)F)c3c2CCCC3)c(C(F)(F)F)n1 [1-12] | B or higher | – | – | – | – |
| CCCC(C)c1cc(C(OC)(C(F)(F)F)C(F)(F)F)ccc1NC(=O)c1c(C)nn(C)c1Cl (stereo not drawn) [1-23] | B or higher | B or higher | – | – | – |
| CC(C)CC(C)c1cc(C(C(F)(F)F)C(F)(F)F)ccc1NC(=O)c1cn(C)nc1C(F)(F)F (stereo not drawn) [1-30] | B or higher | – | – | – | – |
| Cc1c(C(=O)Nc2ccc(C(C(F)(F)F)C(F)(F)F)cc2C(C)CC(C)C)cnn1C (stereo not drawn) [1-45] | B or higher | – | – | – | – |
| CC(C)CC(C)c1cc(C(C(F)(F)F)C(F)(F)F)ccc1NC(=O)c1cnn(C)c1[S+](C)[O-] (stereo not drawn) [1-47] | B or higher | – | – | – | – |
| CC(C)CC(C)c1cc(C(C(F)(F)F)C(F)(F)F)ccc1NC(=O)c1cnn(CCF)c1Cl (stereo not drawn) [1-52] | B or higher | B or higher | B or higher | B or higher | B or higher |
| CCn1ncc(C(=O)Nc2ccc(C(C(F)(F)F)C(F)(F)F)cc2C(C)CC(C)C)c1Br (stereo not drawn) [1-54] | B or higher | B or higher | – | – | – |
| Cc1c(C(=O)Nc2ccc(C(C(F)(F)F)C(F)(F)F)cc2C(C)CC(C)C)c(Cl)nn1C (stereo not drawn) [1-60] | – | – | – | – | B or higher |
| CCn1nc(C)c(C(=O)Nc2ccc(C(O)(C(F)(F)F)C(F)(F)F)cc2C(C)CC(C)C)c1Br (stereo not drawn) [1-83] | B or higher | – | – | – | – |
| CCCc1nn(C)c(Cl)c1C(=O)Nc1ccc(C(C(F)(F)F)C(F)(F)F)cc1C(C)CC(C)C (stereo not drawn) [1-133] | B or higher | – | B or higher | – | – |
| CC(C)CC(C)c1cc(C(C(F)(F)F)C(F)(F)F)ccc1NC(=O)c1snnc1C(F)(F)F (stereo not drawn) [3-12] | – | – | B or higher | – | B or higher |
| CC(C)CC(C)c1cc(C(C(F)(F)F)C(F)(F)F)ccc1NC(=O)c1sccc1Cl (stereo not drawn) [3-28] | – | – | – | – | B or higher |
| CC(C)CC(C)c1cc(C(C(F)(F)F)C(F)(F)F)ccc1NC(=O)c1sccc1I (stereo not drawn) [3-30] | B or higher | – | – | – | B or higher |
| COC(c1ccc(NC(=O)c2sccc2I)c(C(C)CC(C)C)c1)(C(F)(F)F)C(F)(F)F (stereo not drawn) [3-31] | B or higher | – | – | – | B or higher |
| Cc1cc(C(=O)Nc2ccc(C(C(F)(F)F)C(F)(F)F)cc2C(C)CC(C)C)n(C)n1 (stereo not drawn) [4-3] | B or higher | B or higher | – | – | – |
| CC(C)CC(C)c1cc(C(C(F)(F)F)C(F)(F)F)ccc1NC(=O)c1c(C(F)(F)F)nn(C)c1Cl (stereo not drawn) [Compound No. 1-103, N-{2-(1,3-dimethylbutyl)-4-[2,2,2-trifluoro-1-(trifluoromethyl)ethyl]phenyl}-5-chloro-1-methyl-3-trifluoromethylpyrazole-4-carboxamide] | – | B or higher | B or higher | – | B or higher |
